Reference: ChEMBL document CHEMBL1126488, “A new designed tumor selective daunomycin derivative” (Bioorg Med Chem Lett, 1993)

What was measured:
[1] = tested on: CHO; assay: Cytotoxicity of compound was tested against CHO cell line (Chinese hamster ovary) after incubation for 24 hour; type: functional, cell-based; conditions: Cricetulus griseus
[2] = tested on: CHO; assay: Cytotoxicity of compound was tested against CHO cell line (Chinese hamster ovary) after incubation for 72 hour; type: functional, cell-based; conditions: Cricetulus griseus
[3] = tested on: CAPAN-1; assay: Cytotoxicity of compound was tested against Capan-1 cell line (pancreatic carcinoma) after incubation for 24 hour; type: functional, cell-based; conditions: Homo sapiens, CAPAN-1, 24 h
[4] = tested on: CAPAN-1; assay: Cytotoxicity of compound was tested against […] cell line (pancreatic carcinoma) after incubation for 72 hour; type: functional, cell-based; conditions: Homo sapiens, CAPAN-1, 72 h
[5] = tested on: HL-60; assay: Cytotoxicity of compound was tested against HL-60 cell line (promyelocytic leukemia) after incubation for 24 hour; type: functional, cell-based; conditions: Homo sapiens, HL-60, 24 h
[6] = tested on: HL-60; assay: Cytotoxicity of compound was tested against HL-60 cell line (promyelocytic leukemia) after incubation for 72 hour; type: functional, cell-based; conditions: Homo sapiens, HL-60, 72 h
[7] = tested on: HMEC; assay: Cytotoxicity of compound was tested against HMEC cell line (human mamm epithelial cells) after incubation for 24 hour; type: functional, cell-based
[8] = tested on: HMEC; assay: Cytotoxicity of compound was tested against HMEC cell line (human mamm epithelial cells) after incubation for 72 hour; type: functional, cell-based
[9] = tested on: HT-29; assay: Cytotoxicity of compound was tested against HT-29 cell line (colon carcinoma) after incubation for 24 hour; type: functional, cell-based; conditions: Homo sapiens, HT-29, 24 h
[10] = tested on: HT-29; assay: Cytotoxicity of compound was tested against HT-29 cell line (colon carcinoma) after incubation for 72 hour; type: functional, cell-based; conditions: Homo sapiens, HT-29, 72 h
[11] = tested on: MCF7; assay: Cytotoxicity of compound was tested against MCF-7 cell line (breast carcinoma) after incubation for 24 hour; type: functional, cell-based; conditions: Homo sapiens, MCF7, 24 h
[12] = tested on: MCF7; assay: Cytotoxicity of compound was tested against MCF-7 cell line (breast carcinoma) after incubation for 72 hour; type: functional, cell-based; conditions: Homo sapiens, MCF7, 72 h
[13] = tested on: MOLT-4; assay: Cytotoxicity of compound was tested against Molt-4 cell line (T-cell leukemia) after incubation for 24 hour; type: functional, cell-based; conditions: Homo sapiens, MOLT-4, 24 h
[14] = tested on: NHDF; assay: Cytotoxicity of compound was tested against NHDF cell line (norm human dermal fibroblast) after incubation for 72 hour; type: functional, cell-based
[15] = tested on: NHDF; assay: Cytotoxicity of compound was tested against NHDF cell line (norm human dermal fibroblast) after incubation for 24 hour; type: functional, cell-based
[16] = tested on: OVCAR-3; assay: Cytotoxicity of compound was tested against Ovcar-3 cell line (ovarian carcinoma) after incubation for 72 hour; type: functional, cell-based; conditions: Homo sapiens, OVCAR-3, 72 h
[17] = tested on: OVCAR-3; assay: Cytotoxicity of compound was tested against Ovcar-3 cell line (ovarian carcinoma) after incubation for 24 hour; type: functional, cell-based; conditions: Homo sapiens, OVCAR-3, 24 h
[18] = tested on: P388; assay: Cytotoxicity of compound was tested against P-388 cell line (mouse leukemia) after incubation for 24 hour; type: functional, cell-based; conditions: P388, 24 h
[19] = tested on: SK-MEL-28; assay: Cytotoxicity of compound was tested against SK-Mel-28 cell line (melanoma) after incubation for 24 hour; type: functional, cell-based; conditions: Homo sapiens, SK-MEL-28, 24 h
[20] = tested on: SK-MEL-28; assay: Cytotoxicity of compound was tested against SK-Mel-28 cell line (melanoma) after incubation for 72 hour; type: functional, cell-based; conditions: Homo sapiens, SK-MEL-28, 72 h
[21] = Lethal dose of compound required when administered BALB C mice; type: toxicity; conditions: mouse, in vivo
[22] = tested on: UCLA P-3; assay: Cytotoxicity of compound was tested against UCLA P-3 cell line (lung carcinoma) after incubation for 24 hour; type: functional, cell-based; conditions: Homo sapiens, UCLA P-3, 24 h
[23] = tested on: P388; assay: Cytotoxicity of compound was tested against P-388 cell line (mouse leukemia) after incubation for 72 hour; type: functional, cell-based; conditions: P388, 72 h

Structure (SMILES): COc1cccc2c1C(=O)c1c(O)c3c(c(O)c1C2=O)C[C@@](O)(C(C)=O)C[C@@H]3O[C@H]1C[C@H](N)[C@H](O)[C@H](C)O1.Cl [DAUNORUBICIN HYDROCHLORIDE]
- IC50 [1]: 390 nM
- IC50 [2]: 294 nM
- IC50 [3]: 390 nM
- IC50 [4]: 3.1 µM
- IC50 [5]: < 98 nM
- IC50 [6]: 98 nM
- IC50 [7]: 390 nM
- IC50 [8]: < 98 nM
- IC50 [9]: 780 nM
- IC50 [10]: 357 nM
- IC50 [11]: 780 nM
- IC50 [12]: 13.5 µM
- IC50 [13]: 1 nM
- IC50 [14]: 404 nM
- IC50 [15]: 190 nM
- IC50 [16]: 287 nM
- IC50 [17]: 390 nM
- IC50 [18]: 390 nM
- IC50 [19]: 1600 nM
- IC50 [20]: 1410 nM
- LD50 [21]: 15 mg/kg
- IC50 [22]: 730 nM
- IC50 [23]: < 98 nM
